Literature values as cited in patent US9717692B2, “Effervescent formulations comprising dexketoprofen” (priority 2011, dated 2017).

Conditions: Sunshine et al., WO89/046558

C[C@H](C(=O)O)c1cccc(C(=O)c2ccccc2)c1 [Dexketoprofen, (+)-(S)-2-(3-Benzoylphenyl) propionic acid]
effect compared with racemic ketoprofen of the same amount: quicker and stronger effect
